{"source": "paper PMC2151541", "about": "(The Journal of General Physiology, 2006)", "target": "muscle acetylcholine nicotinic receptor (AChR), adult mouse muscle, wild type (Mus musculus, UniProt P02716+P04756+P09690+P20782)", "sequence (P02716 25-520)": "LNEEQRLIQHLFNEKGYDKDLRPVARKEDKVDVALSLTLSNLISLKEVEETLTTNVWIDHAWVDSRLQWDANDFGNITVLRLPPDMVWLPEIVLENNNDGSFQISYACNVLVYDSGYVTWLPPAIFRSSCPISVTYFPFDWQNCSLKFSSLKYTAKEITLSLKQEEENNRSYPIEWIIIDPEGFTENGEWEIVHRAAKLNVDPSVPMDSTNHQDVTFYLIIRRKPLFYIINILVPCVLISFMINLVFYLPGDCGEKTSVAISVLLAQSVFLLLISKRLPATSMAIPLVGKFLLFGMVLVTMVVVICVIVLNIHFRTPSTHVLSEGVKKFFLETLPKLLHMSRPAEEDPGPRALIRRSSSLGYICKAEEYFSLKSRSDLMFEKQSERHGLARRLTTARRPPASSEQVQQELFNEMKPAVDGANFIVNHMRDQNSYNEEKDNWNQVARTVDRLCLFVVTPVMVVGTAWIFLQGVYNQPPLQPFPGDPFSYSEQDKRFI", "sequence (P20782 21-493)": "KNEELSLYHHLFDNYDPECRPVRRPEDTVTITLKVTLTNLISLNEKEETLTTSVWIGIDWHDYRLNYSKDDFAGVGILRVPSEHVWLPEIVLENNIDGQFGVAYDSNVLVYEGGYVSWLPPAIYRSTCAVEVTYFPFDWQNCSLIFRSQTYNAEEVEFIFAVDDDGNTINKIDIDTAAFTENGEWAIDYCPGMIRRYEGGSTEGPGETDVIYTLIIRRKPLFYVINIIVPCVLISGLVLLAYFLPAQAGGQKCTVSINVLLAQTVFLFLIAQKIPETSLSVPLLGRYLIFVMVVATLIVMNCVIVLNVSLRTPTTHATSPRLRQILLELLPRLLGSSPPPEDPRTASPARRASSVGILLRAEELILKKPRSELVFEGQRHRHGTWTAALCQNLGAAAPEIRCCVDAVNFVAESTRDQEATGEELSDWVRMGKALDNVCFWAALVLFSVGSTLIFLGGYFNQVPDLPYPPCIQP", "sequence (P04756 21-457)": "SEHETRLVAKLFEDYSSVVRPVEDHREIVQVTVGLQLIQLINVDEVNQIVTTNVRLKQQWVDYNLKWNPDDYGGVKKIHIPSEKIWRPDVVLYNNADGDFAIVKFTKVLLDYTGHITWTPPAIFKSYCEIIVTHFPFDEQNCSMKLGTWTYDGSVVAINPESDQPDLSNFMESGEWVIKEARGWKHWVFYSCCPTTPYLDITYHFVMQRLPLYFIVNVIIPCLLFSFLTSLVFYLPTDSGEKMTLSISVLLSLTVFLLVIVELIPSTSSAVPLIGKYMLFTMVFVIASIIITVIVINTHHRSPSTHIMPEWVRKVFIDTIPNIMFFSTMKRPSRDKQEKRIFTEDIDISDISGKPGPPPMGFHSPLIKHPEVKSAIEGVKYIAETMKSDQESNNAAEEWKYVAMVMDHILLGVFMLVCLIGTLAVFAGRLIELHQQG", "sequence (P09690 24-501)": "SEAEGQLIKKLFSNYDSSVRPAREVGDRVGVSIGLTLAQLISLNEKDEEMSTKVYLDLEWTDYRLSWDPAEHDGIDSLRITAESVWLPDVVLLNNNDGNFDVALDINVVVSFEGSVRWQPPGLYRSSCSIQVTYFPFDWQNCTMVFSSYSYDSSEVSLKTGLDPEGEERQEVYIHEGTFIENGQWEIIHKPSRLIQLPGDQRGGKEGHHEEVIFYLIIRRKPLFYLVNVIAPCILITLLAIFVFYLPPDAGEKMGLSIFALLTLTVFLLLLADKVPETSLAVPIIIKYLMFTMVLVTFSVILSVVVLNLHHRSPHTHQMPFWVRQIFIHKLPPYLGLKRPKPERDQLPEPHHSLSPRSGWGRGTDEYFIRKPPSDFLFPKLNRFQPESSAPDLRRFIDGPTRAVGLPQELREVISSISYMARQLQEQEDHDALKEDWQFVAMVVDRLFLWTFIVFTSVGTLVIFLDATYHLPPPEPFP", "assay": "cell-attached single-channel patch clamp", "format": "cell-based", "data": [{"smiles": "C[N+](C)(C)CCO", "note": "[choline]", "values": [{"measurement": "Kd", "value": 12.5, "unit": "mM"}]}]}
